This note sets out measurements from ChEMBL document CHEMBL1629464, “Aldehyde oxidase: an enzyme of emerging importance in drug discovery” (J Med Chem, 2010).

Data set [1] in a line: Oral bioavailability in dog. Particulars: in vivo. The format is ADME, organism-based, Canis lupus familiaris.
The target of data set [2] is T1, Aldehyde oxidase 1 (Macaca fascicularis, UniProt Q5FB27).
T1 sequence (Q5FB27 whole entry): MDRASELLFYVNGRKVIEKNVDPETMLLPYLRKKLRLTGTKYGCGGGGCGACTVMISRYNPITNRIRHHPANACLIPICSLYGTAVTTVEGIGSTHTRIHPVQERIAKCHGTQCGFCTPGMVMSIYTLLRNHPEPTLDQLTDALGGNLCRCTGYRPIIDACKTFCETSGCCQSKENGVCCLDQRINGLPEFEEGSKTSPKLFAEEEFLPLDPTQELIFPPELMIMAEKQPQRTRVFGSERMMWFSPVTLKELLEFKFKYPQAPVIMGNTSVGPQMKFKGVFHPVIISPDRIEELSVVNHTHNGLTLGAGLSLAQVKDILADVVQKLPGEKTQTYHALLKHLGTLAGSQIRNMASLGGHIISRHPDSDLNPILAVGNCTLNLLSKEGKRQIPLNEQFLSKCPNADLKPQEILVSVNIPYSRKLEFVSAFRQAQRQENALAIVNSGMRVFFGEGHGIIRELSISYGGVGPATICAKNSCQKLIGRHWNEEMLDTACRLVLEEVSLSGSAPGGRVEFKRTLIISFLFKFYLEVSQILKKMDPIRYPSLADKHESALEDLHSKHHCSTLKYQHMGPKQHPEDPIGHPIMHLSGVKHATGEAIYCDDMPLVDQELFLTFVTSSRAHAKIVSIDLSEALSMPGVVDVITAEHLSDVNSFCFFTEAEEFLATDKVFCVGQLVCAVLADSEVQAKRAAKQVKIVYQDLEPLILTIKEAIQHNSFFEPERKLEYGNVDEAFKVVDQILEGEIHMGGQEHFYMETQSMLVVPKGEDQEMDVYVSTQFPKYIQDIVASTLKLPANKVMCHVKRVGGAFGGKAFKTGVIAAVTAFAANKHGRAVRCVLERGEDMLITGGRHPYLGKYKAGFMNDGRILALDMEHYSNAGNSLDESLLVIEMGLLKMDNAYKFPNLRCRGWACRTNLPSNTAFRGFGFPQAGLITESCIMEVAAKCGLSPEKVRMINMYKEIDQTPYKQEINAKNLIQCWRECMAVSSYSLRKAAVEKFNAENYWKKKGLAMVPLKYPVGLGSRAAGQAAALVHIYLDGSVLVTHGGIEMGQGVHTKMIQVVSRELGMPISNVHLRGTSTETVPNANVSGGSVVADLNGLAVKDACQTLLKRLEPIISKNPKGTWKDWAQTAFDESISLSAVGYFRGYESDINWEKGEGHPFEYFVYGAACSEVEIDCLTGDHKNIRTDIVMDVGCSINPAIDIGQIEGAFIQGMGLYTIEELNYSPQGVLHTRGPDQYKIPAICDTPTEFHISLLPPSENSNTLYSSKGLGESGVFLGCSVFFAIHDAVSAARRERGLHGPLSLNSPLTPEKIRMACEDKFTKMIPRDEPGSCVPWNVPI
Description: Inhibition of monkey aldehyde oxidase.

Data set [3] addresses T2, Aldehyde oxidase 1 (Mus musculus, UniProt O54754).
T2 sequence (O54754 whole entry): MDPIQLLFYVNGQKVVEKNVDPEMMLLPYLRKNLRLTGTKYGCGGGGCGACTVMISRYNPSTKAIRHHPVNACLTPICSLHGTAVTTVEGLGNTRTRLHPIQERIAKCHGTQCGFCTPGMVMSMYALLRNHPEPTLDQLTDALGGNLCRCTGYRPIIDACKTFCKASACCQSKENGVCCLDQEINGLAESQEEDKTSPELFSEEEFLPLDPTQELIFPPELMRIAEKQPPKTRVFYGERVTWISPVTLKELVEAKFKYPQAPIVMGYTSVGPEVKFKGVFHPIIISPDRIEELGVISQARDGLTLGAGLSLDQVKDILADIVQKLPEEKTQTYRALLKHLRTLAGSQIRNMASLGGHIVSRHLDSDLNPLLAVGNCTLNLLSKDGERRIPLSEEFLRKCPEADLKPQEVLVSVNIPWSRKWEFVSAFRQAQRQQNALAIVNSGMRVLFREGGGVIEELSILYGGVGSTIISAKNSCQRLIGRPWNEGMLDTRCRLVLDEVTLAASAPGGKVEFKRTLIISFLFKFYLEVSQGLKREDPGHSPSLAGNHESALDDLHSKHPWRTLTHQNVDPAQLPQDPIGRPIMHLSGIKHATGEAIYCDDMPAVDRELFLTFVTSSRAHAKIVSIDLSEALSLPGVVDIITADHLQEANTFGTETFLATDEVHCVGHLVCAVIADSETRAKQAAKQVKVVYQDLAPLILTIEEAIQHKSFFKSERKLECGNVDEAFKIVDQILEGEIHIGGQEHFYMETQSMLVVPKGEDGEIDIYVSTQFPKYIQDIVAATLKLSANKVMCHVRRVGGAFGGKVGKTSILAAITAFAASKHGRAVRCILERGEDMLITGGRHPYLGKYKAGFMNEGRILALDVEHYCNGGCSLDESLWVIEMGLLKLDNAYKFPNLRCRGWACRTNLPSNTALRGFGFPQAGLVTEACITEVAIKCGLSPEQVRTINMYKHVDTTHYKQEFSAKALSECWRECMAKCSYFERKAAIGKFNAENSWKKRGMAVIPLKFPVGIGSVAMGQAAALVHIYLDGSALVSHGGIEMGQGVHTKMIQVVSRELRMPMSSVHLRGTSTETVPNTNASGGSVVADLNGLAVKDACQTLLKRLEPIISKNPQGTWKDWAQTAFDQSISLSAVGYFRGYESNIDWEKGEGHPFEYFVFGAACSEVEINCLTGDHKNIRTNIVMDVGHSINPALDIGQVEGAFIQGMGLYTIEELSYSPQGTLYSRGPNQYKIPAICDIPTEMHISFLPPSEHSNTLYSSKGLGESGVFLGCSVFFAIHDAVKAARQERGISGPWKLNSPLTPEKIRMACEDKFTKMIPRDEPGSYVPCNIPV
Description: Inhibition of mouse aldehyde oxidase.

Data set [4] has as its target T3, Aldehyde oxidase 1 (Rattus norvegicus, UniProt Q9Z0U5).
T3 sequence (Q9Z0U5 whole entry): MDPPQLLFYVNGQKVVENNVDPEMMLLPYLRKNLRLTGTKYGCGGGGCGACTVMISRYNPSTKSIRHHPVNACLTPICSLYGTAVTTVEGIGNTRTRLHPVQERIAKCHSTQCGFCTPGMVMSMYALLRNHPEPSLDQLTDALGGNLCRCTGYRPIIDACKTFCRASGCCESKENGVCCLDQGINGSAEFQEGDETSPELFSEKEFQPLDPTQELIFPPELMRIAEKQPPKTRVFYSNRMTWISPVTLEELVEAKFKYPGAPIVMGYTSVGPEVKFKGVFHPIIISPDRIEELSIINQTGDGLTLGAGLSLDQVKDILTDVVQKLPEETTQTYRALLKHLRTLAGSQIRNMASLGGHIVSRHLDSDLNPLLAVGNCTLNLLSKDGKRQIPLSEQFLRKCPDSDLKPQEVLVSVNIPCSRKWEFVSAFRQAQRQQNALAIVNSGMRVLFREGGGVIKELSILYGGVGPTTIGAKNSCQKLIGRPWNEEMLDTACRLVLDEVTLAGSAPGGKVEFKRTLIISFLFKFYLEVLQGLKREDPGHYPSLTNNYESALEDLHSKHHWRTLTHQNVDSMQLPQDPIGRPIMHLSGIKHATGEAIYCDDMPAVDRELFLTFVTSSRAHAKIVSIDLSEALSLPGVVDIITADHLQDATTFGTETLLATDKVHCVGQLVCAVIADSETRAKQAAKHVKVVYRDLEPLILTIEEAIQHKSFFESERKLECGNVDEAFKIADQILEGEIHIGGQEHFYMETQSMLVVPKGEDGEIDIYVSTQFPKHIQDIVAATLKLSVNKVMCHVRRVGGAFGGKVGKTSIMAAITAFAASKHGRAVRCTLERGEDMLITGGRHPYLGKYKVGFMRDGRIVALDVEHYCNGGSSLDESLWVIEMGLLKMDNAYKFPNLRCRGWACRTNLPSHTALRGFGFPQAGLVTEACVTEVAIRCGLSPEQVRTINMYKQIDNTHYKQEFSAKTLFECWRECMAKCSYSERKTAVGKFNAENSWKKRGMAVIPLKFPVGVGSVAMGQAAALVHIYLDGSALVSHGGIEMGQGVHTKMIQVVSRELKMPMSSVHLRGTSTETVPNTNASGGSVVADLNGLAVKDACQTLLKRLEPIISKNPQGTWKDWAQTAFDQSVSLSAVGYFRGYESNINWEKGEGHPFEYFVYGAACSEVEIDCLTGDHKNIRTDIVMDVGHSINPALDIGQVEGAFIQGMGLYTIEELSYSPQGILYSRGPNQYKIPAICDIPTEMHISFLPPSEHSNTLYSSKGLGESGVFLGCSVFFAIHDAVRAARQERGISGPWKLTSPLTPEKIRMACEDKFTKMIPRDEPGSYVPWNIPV
Description: Inhibition of rat aldehyde oxidase.

For another data set, the system named is Homo sapiens. As to the kind of experiment: In-vivo intrinsic clearance in human. The format is ADME, organism-based.
Substrate in data set [5]: CCN(C(C)=O)c1cccc(-c2ccnc3c(C#N)cnn23)c1
As to the kind of experiment: Activity of aldehyde oxidase in human liver cytosol. The format is ADME, tissue-based.

One may read the bioavailability as dose-corrected exposure relative to a reference, in per cent. In data set [1], `CCNC(=O)OC1CCN(c2n[nH]c(=O)c3cc(OC)c(OC)cc23)CC1` had a bioavailability of 68%.
As a reminder, the IC50 is the concentration needed to halve the response being measured. Turning to `O=C(c1ccc(OCCN2CCCCC2)cc1)c1c(-c2ccc(O)cc2)sc2cc(O)ccc12` [RALOXIFENE], the IC50 came to 500 nM on Aldehyde oxidase 1 [2], 500 nM against Aldehyde oxidase 1 [3] and 1100 nM at Aldehyde oxidase 1 [4].
For `CCN(C(C)=O)c1cccc(-c2ccnc3c(C#N)cnn23)c1` [ZALEPLON], the CL in the data set on Homo sapiens was found to be 90 mL/min/kg.

B1: Aldehyde oxidase (Homo sapiens) (protein)
chain: MDRASELLFYVNGRKVIEKNVDPETMLLPYLRKKLRLTGTKYGCGGGGCGACTVMISRYNPITKRIRHHPANACLIPICSLYGAAVTTVEGIGSTHTRIHPVQERIAKCHGTQCGFCTPGMVMSIYTLLRNHPEPTLDQLTDALGGNLCRCTGYRPIIDACKTFCKTSGCCQSKENGVCCLDQGINGLPEFEEGSKTSPKLFAEEEFLPLDPTQELIFPPELMIMAEKQSQRTRVFGSERMMWFSPVTLKELLEFKFKYPQAPVIMGNTSVGPEVKFKGVFHPVIISPDRIEELSVVNHAYNGLTLGAGLSLAQVKDILADVVQKLPEEKTQMYHALLKHLGTLAGSQIRNMASLGGHIISRHPDSDLNPILAVGNCTLNLLSKEGKRQIPLNEQFLSKCPNADLKPQEILVSVNIPYSRKWEFVSAFRQAQRQENALAIVNSGMRVFFGEGDGIIRELCISYGGVGPATICAKNSCQKLIGRHWNEQMLDIACRLILNEVSLLGSAPGGKVEFKRTLIISFLFKFYLEVSQILKKMDPVHYPSLADKYESALEDLHSKHHCSTLKYQNIGPKQHPEDPIGHPIMHLSGVKHATGEAIYCDDMPLVDQELFLTFVTSSRAHAKIVSIDLSEALSMPGVVDIMTAEHLSDVNSFCFFTEAEKFLATDKVFCVGQLVCAVLADSEVQAKRAAKRVKIVYQDLEPLILTIEESIQHNSSFKPERKLEYGNVDEAFKVVDQILEGEIHMGGQEHFYMETQSMLVVPKGEDQEMDVYVSTQFPKYIQDIVASTLKLPANKVMCHVRRVGGAFGGKVLKTGIIAAVTAFAANKHGRAVRCVLERGEDMLITGGRHPYLGKYKAGFMNDGRILALDMEHYSNAGASLDESLFVIEMGLLKMDNAYKFPNLRCRGWACRTNLPSNTAFRGFGFPQAALITESCITEVAAKCGLSPEKVRIINMYKEIDQTPYKQEINAKNLIQCWRECMAMSSYSLRKVAVEKFNAENYWKKKGLAMVPLKFPVGLGSRAAGQAAALVHIYLDGSVLVTHGGIEMGQGVHTKMIQVVSRELRMPMSNVHLRGTSTETVPNANISGGSVVADLNGLAVKDACQTLLKRLEPIISKNPKGTWKDWAQTAFDESINLSAVGYFRGYESDMNWEKGEGQPFEYFVYGAACSEVEIDCLTGDHKNIRTDIVMDVGCSINPAIDIGQIEGAFIQGMGLYTIEELNYSPQGILHTRGPDQYKIPAICDMPTELHIALLPPSQNSNTLYSSKGLGESGVFLGCSVFFAIHDAVSAARQERGLHGPLTLNSPLTPEKIRMACEDKFTKMIPRDEPGSYVPWNVPI
As usually defined, the Km is the concentration of substrate that gives half-maximal velocity. By Vmax is commonly meant the top rate of the reaction or transport when substrate is in excess. On to B1, for which, in data set [5], the Km was 124 µM and the Vmax amounted to 0.000564 µmol/min.
